Source: US20240059693A1, “FUSED BICYCLIC PYRAZOLE DERIVATIVES AND METHODS OF USE THEREOF FOR THE TREATMENT OF HERPESVIRUSES” (Merck Sharp & Dohme LLC, priority 2020, published 2024)
Read-outs that look alike come from different tables or passages of the source.

Tests used:
[1] = test system: VZV; assay: Viral qPCR assay, VZV in MeWo cells; format: cell-based, varicella zoster virus; conditions: read-out: VZV MEWO Cell (IC50)
Protocol: (§1) MRCS cells, Vero cells, and MeWo cells were obtained from ATCC and were maintained at 37° C./5% CO2/90% relative humidity in Minimal Essential Medium with 10% fetal bovine serum, […] L-glutamine, 100 units/ml penicillin and 100 ug/ml streptomycin. Assay plates were prepared by dispensing compounds dissolved in DMSO into wells of 384 well collagen-coated plates using an ECHO acoustic dispenser. Each compound was tested in a 10-point, serial 3-fold dilution. Controls included uninfected cells and infected cells treated only with DMSO. Assays were initiated by mixing selected cells, in suspension, with virus, and dispensing 50 μl/well infected cells to pre-plated compounds. Plates were incubated at 37° C./5% CO2/90% relative humidity for ˜72 hrs to permit genomic replication, and infected cells were lysed by the addition of an equal volume of lysis buffer (10 mM Tris-HCl, pH8, 50 mM KCl, 2 mM MgCl2, 0.45% NP-40, 0.45% Tween-20, and 100 μg/ml proteinase K). An aliquot of the lysate was transferred to a 384-well PCR plate and incubated at 56° C. for 1 hour and then at 95° C. for 10 min. Levels of a viral gene and of the cellular control, PPIA (Thermo Fisher Assay ID=Hs04194521_s1), were measured in separate 10 μL qPCR assays using TaqMan® Gene Expression Master Mix (Applied Biosystems), and an 7900HT Fast Real-Time PCR System with 384-Well Block Module. 7-point, serial 10-fold dilutions of a plasmid standard were run on each plate to generate a standard curve, and genome copies numbers were calculated by plotting experimental Ct onto linear regression of the standard curve. Viral genome copy numbers were normalized by cellular control copy number, and compound effects were normalized to the window defined by the controls. Calculated % effects were fit using a 4-parameter algorithm, and EC50 was reported.
as §1, with “gene” for “gene and of the cellular control, PPIA (Thermo Fisher Assay ID=Hs04194521_s1),”, “in” for “in separate”, “Compound effects on viral” for “Viral”, “number” for “numbers were normalized by cellular control copy number, and compound effects”
(§2) VZV: Strain Street was maintained as an infected cell stock in MRC-5 cells. It was assayed in MeWo or MRCS cells and was used at 0.04-0.1 pfu/cell. The assays were performed in growth medium. Primer-probe set was Thermo Fisher Assay ID=AIPAEXQ. HSV-1: Strain F Street was assayed in Vero or MRCS cells and was used at 0.0005-0.004 pfu/cell in growth medium. Primer-probe set was Thermo Fisher Assay ID=AIBJZIB

[2] = biological target: T1, Human cytomegalovirus DNA polymerase (Human cytomegalovirus, UniProt P08546); assay: HCMV polymerase assay (AlphaLISA); format: biochemical; conditions: HCMV DNA polymerase 0.2 nM, 60 minutes at 37° C.; read-out: CMV (IC50)
T1 construct: made in house; host or cells: SF21 insect cells (baculovirus vector)
T1 sequence (P08546 whole entry): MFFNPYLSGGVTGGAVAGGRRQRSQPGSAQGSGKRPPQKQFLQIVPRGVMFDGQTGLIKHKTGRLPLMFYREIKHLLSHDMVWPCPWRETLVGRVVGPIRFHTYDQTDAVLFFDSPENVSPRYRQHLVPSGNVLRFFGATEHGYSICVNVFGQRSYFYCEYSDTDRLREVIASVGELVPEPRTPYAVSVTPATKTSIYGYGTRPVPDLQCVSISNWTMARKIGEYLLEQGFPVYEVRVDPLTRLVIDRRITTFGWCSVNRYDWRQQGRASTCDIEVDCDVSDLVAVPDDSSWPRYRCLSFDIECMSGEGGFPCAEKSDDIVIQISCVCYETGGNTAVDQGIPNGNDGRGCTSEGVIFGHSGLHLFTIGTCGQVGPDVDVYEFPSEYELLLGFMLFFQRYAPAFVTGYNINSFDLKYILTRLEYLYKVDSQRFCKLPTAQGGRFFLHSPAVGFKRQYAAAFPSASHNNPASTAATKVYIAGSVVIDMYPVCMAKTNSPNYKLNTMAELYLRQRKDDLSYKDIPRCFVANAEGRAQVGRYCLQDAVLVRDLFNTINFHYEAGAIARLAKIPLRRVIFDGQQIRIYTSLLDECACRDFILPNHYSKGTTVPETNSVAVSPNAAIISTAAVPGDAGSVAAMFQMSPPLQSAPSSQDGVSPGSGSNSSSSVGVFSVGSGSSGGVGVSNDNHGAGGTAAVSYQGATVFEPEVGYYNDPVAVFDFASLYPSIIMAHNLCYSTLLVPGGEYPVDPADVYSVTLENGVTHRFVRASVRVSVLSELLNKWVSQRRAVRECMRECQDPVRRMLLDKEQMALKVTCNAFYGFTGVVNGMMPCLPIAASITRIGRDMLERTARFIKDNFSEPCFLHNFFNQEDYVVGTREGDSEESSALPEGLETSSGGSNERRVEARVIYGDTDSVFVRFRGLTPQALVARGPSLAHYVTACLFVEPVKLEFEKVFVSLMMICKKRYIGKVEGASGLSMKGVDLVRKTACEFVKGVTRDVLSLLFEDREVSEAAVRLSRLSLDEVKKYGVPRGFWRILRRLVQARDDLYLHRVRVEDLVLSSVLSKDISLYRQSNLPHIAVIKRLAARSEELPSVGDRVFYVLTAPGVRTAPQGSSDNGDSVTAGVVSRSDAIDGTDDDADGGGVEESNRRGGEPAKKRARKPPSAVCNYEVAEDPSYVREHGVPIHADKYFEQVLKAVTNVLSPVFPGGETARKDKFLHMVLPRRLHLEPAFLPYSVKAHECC
Procedure, shortened: (§3)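 Baculovirus/SF21-expressed polymerase (HCMV 0.2 nM; VZV 0.4 nM) pre-incubated 30 min at room temperature with compound in HEPES pH 7.5 buffer, then 60 min at 37 °C with 1.6 nM DIG-primer/template, sub-nM to 24 nM dNTPs and 0.8 nM biotin-dUTP. AlphaLISA detection; IC50 from 4-parameter fit.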

[3] = test system: HSV2; assay: Viral qPCR assay, HSV2 in MRC5 cells; format: cell-based, Herpes Simplex Virus type 2; conditions: read-out: HSV2 MRC5 Cell (EC50)
Procedure, shortened: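 Vero or MRC5 cells infected in suspension with HSV2 and added to a 10-point 3-fold compound dilution, then ~72 h at 37 °C. Lysates assayed by TaqMan qPCR against a plasmid standard curve; copies normalized to controls (with PPIA in one format) and EC50 from 4-parameter fit.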

[4] = test system: HSV-1 Strain F; assay: Viral qPCR assay, HSV-1 in Vero cells; format: cell-based, Herpes Simplex Virus type 1; conditions: read-out: HSV1 VERO Cell (EC50)
Protocol: as §1
as §1, with “gene” for “gene and of the cellular control, PPIA (Thermo Fisher Assay ID=Hs04194521_s1),”, “in” for “in separate”, “Compound effects on viral” for “Viral”, “number” for “numbers were normalized by cellular control copy number, and compound effects”
as §2

[5] = test system: HSV2; assay: Viral qPCR assay, HSV2 in Vero cells; format: cell-based, Herpes Simplex Virus type 2; conditions: read-out: HSV2 VERO Cell (EC50)
Protocol: as §1
as §1, with “gene” for “gene and of the cellular control, PPIA (Thermo Fisher Assay ID=Hs04194521_s1),”, “in” for “in separate”, “Compound effects on viral” for “Viral”, “number” for “numbers were normalized by cellular control copy number, and compound effects”

[6] = test system: HSV-1 Strain F; assay: Viral qPCR assay, HSV-1 in MRC5 cells; format: cell-based, Herpes Simplex Virus type 1; conditions: read-out: HSV1 MRC5 Cell (EC50)
Procedure, shortened: (§4)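 MRC5, MeWo (VZV Street strain, 0.04-0.1 pfu/cell) or Vero/MRC5 (HSV-1 Strain F, 0.0005-0.004 pfu/cell) cells infected in suspension and added to 10-point 3-fold compound dilutions; ~72 h at 37 °C. Lysates qPCR-quantified for viral genome copies against plasmid standard curve, in one format normalized to cellular PPIA; 4-parameter fit gives EC50.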

[7] = test system: VZV; assay: Viral qPCR assay, VZV in MRC5 cells; format: cell-based, varicella zoster virus; conditions: read-out: VZV MRC5 Cell (IC50)
Procedure, shortened: as §4

[8] = biological target: T2, varicella zoster virus DNA polymerase (Varicella-zoster virus, UniProt P09252); assay: VZV polymerase assay (AlphaLISA); format: biochemical; conditions: VZV DNA polymerase 0.4 nM, 60 minutes at 37° C.
T2 construct: made in house; host or cells: SF21 insect cells (baculovirus vector)
T2 sequence (P09252 whole entry): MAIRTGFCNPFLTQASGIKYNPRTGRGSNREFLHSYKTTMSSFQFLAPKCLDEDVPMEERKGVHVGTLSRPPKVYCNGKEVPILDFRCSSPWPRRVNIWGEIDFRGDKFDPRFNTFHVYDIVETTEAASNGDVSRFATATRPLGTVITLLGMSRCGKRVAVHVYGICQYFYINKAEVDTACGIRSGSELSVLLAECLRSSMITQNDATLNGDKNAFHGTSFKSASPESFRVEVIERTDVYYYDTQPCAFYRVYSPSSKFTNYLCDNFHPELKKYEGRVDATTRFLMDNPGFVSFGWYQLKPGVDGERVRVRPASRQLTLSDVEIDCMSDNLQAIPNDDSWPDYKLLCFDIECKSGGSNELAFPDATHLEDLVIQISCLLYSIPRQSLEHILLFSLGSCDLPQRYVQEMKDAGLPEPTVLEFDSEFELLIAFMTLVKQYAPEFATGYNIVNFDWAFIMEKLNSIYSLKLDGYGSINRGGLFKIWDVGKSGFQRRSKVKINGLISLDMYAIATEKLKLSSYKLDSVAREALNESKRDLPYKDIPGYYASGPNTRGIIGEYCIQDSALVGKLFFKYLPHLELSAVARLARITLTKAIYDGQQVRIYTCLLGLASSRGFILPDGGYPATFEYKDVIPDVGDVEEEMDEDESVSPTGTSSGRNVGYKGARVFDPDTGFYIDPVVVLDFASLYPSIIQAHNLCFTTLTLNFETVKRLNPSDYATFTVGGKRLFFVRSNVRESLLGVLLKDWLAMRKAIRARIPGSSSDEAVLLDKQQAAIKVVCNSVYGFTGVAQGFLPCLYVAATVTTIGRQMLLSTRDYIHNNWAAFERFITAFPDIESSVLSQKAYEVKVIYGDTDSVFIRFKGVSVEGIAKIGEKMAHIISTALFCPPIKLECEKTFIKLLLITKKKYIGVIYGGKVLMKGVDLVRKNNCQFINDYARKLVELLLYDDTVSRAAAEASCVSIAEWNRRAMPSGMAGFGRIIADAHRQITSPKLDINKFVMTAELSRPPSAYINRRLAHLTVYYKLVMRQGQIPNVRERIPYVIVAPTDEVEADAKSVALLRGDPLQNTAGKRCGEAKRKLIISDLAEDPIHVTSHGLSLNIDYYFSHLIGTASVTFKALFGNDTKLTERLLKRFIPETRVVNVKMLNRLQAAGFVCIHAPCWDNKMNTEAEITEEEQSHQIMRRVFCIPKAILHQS
Procedure, shortened: as §3

[9] = test system: HCMV Strain AD169; assay: Viral qPCR assay, HCMV in MRC-5 cells; format: cell-based, Human cytomegalovirus; conditions: read-out: CMV MRC5 Cell (EC50)
Procedure, shortened: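 MRC-5 cells infected in suspension with HCMV AD169 (0.05-0.1 pfu/cell) and added to 10-point 3-fold compound dilutions, in growth media or media with 50% FBS. After ~72 h at 37 °C, lysates analysed by TaqMan qPCR against a plasmid standard curve, viral copies normalised to PPIA or not. EC50 from 4-parameter fit.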

[10] = Human alphaherpesvirus 3, ~72 hrs
[11] = Human alphaherpesvirus 1, Vero, 72 h
[12] = Human alphaherpesvirus 2, Vero, 72 h
[13] = Human betaherpesvirus 5, AD169, MRC5, 72 h
[14] = Human alphaherpesvirus 2, MRC5, 72 h
[15] = Human alphaherpesvirus 1, MRC5, 72 h
[16] = Human alphaherpesvirus 3, MRC5, 72 h

Structure (SMILES) | IC50 ([1]; ~72 hrs) [nM] | IC50 [2] [nM] | EC50 ([4]; ~72 hrs) [nM] | EC50 ([5]; ~72 hrs) [nM] | IC50 [8] [nM] | IC50 [1, 10] [nM] | EC50 [4, 11] [nM] | EC50 [5, 12] [nM] | EC50 ([3]; ~72 hrs) [nM] | EC50 ([6]; ~72 hrs) [nM] | IC50 ([7]; ~72 hrs) [nM] | EC50 ([9]; MRC5 cells, ~72 hrs) [nM] | EC50 [9, 13] [nM] | EC50 [3, 14] [nM] | EC50 [6, 15] [nM] | IC50 [7, 16] [nM]
Cn1nc(C(=O)NCc2ccc(Cl)cc2)c2c1CC(C[C@@H]1CCC(=O)N1)C2 (single isomer, unassigned) [Compound 127] | 130 | 48.9 | 240 | 364 | 9.72 | – | – | – | 278 | 694 | 407 | 599 | – | – | – | –
Cn1nc(C(=O)NCc2ccc(Cl)cc2)c2c1CC(C[C@H]1CCC(=O)N1)C2 (single isomer, unassigned) [Compound 129] | 154 | 74.2 | 264 | 422 | 9.1 | – | – | – | 384 | 1020 | 371 | 1570 | – | – | – | –
CN(CCn1nc(C(=O)NCc2ccc(Cl)cc2)c2c1CN(C[C@H]1CCC(=O)N1)C2)C(=O)C1CCC1 [Compound 3] | – | 8.75 | – | – | 3.45 | 342 | 33300 | 56900 | – | – | – | – | 1260 | – | – | –
O=C1CC[C@H](CN2Cc3c(C(=O)NCc4ccc(Cl)cc4)nn(CC4CCCO4)c3C2)N1 (stereo partly drawn) [Compound 29] | – | 186 | – | – | 57.8 | 258 | 5320 | 8930 | – | – | – | – | 3680 | – | – | –
O=C1CC[C@H](CN2Cc3c(C(=O)NCc4ccc(Cl)cc4)nn(CCn4ccc(Cl)n4)c3C2)N1 [Compound 36] | – | 8.94 | – | – | 5.85 | 102 | 1190 | 2840 | – | – | – | – | 453 | 960 | 1270 | 856
CC(C)(O)Cn1nc(C(=O)NCc2ccc(Cl)cc2)c2c1CN(C[C@H]1CCC(=O)N1)C2 [Compound 58] | – | 120 | – | – | 18.9 | 602 | 536 | 712 | – | – | – | – | 1230 | – | – | –

The remaining molecules from weak to strong by IC50 [2], led by results:

IC50 ([1]; ~72 hrs) [nM] | IC50 [2] [nM] | EC50 ([4]; ~72 hrs) [nM] | EC50 ([5]; ~72 hrs) [nM] | IC50 [8] [nM] | IC50 [1, 10] [nM] | EC50 [4, 11] [nM] | EC50 [5, 12] [nM] | Structure (SMILES) | EC50 ([3]; ~72 hrs) [nM] | EC50 ([6]; ~72 hrs) [nM] | IC50 ([7]; ~72 hrs) [nM] | EC50 ([9]; MRC5 cells, ~72 hrs) [nM] | EC50 [9, 13] [nM] | EC50 [3, 14] [nM] | EC50 [6, 15] [nM] | IC50 [7, 16] [nM]
– | 245 | – | – | 65.9 | 2350 | 12000 | 16400 | CC1(Cn2nc(C(=O)NCc3ccc(Cl)cc3)c3c2CN(C[C@H]2CCC(=O)N2)C3)COC1 [Compound 30] | – | – | – | – | 5750 | – | – | –
– | 143 | – | – | 112 | 1470 | 2850 | 5460 | Cn1nc(C(=O)NCc2ccc(Cl)c(F)c2)c2c1CN(C[C@H]1CCC(=O)N1)C2 [Compound 60] | – | – | – | – | 970 | 5570 | 8350 | 5960
– | 34.6 | – | – | 15.6 | 500 | 2580 | 5830 | O=C1CC[C@H](CN2Cc3c(C(=O)NCc4ccc(Cl)cc4)nn(CCC4CCOC4)c3C2)N1 (stereo partly drawn) [Compound 38] | – | – | – | – | 1240 | – | – | –
– | 11.3 | – | – | 11.5 | 484 | 99000 | 99000 | CC(C)C(=O)NCCn1nc(C(=O)NCc2ccc(Cl)cc2)c2c1CN(C[C@H]1CCC(=O)N1)C2 [Compound 25] | – | – | – | – | 970 | 16400 | 17400 | 29000
